For assay [1], the target named is full-length MALT1 protein (Strep-MALT1(1-824)-His) (Homo sapiens (Human), UniProt Q9UDY8). Briefly: MALT1 Biochemical Protease Assay (Ac-LRSR-AMC substrate). Particulars: 10 nM FL MALT1, 200 μM Ac-LRSR-AMC, 4 h at RT; read-out: MALT1_Biochemical activity (Ac-LRSR-amc) IC50. The method, boiled down: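 Fluorescence from AMC release off the quenched LRSR substrate was read after a 4 h reaction at RT. Values were normalised to no-enzyme and uninhibited controls and fitted for IC50 and Hill coefficient.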
Sequence of full-length MALT1 protein (Strep-MALT1(1-824)-His) (Q9UDY8 whole entry): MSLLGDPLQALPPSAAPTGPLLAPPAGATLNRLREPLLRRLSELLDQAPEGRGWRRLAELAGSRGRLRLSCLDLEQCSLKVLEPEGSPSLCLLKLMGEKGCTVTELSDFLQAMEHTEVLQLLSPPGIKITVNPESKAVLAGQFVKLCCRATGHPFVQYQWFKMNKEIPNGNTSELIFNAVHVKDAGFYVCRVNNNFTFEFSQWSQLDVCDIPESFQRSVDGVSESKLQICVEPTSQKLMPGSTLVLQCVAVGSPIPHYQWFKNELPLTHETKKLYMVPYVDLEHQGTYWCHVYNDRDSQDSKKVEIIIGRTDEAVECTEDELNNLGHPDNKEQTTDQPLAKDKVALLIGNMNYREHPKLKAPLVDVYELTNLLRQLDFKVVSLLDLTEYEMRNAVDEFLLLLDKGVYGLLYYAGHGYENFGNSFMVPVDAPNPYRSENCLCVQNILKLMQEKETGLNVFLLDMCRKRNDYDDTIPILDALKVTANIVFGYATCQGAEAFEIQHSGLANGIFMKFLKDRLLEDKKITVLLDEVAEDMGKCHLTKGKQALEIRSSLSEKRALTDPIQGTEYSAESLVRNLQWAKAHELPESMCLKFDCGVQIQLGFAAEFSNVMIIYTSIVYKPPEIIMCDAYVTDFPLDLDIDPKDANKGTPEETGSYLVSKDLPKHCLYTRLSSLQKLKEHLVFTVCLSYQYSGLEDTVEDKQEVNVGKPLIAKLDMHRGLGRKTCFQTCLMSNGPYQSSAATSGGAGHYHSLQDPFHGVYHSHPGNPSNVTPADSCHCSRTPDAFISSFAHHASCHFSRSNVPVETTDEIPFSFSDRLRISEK

A further assay has as its system Jurkat cells. Briefly: PMA Induced IL2 Production In Jurkat Cells. The note with it: Homo sapiens, PMA/Ionomycin, 20 h, read-out: IL-2 prod h Jurkat PMA IC50. In kind it is cell-based. On the procedure:
Jurkat cells were maintained in complete RPMI 1640 media containing 10% fetal bovine serum, 10 mM HEPES, 100 units/mL of penicillin and 100 μg/mL of streptomycin. Prior to the assay, compounds were made 2- to 4-fold serial dilutions in DMSO. A volume of 10 μL of DMSO-diluted compound in each well were further diluted into 240 μL RPMI1640 complete media. Jurkat cells were harvested by centrifuge at 1200 RPM for 5 min, washed one time with RPMI 1640 media, and suspended in fresh complete RPMI 1640 media at concentration of 1.25×10^6 cell/mL. A volume of 160 uL of Jurkat cells (2×10^5 cells) were seeded in each well of 96 well plate-bottom plates. A volume of 20 uL of diluted compound in RMPI 1640 complete media were added to each well and incubated with Jurkat cells for 30 min at 37° C. in a 5% CO2 incubator. A volume 20 μL of diluted PMA/Ionomycin (81 nM/1.3 uM respectively, ebioscience, catalog number 00-4970-93) in RMPI 1640 complete media were added to each well. After incubation at 37° C. in 5% CO2 incubator for 20 h, supernatants were harvested. IL-2 concentration was assessed by ELISA (IL2 Duoset, R&D Systems, catalog number DY202). Colorimetric intensity at 450 nm was read by Spectramax plate reader and analyzed with Softmax Pro software. Cell viability was assessed by Cell Titer Glo kit (Promega, catalog number G7571) using Victor Luminescence reader (Victor 3V 4202938 by Perkin Elmer).

Assay [2] concerns IL6 secretion by TMD8 ABC-DLBCL cells. Put plainly: Human IL6 Mesoscale assay (TMD-8). In kind it is cell-based. The note with it: Homo sapiens, TMD8; TMD-8 cells, 24 h. The gist of the method:
(§1)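 Read-out: MSD electrochemiluminescence of IL6/IL10 in supernatants. Cells (100,000/well, no beta-mercaptoethanol) were exposed to compounds at 15 μM down to 58.6 nM, 1:2 dilutions, for 24 h at 37° C, 5% CO2. Normalised between DMSO (high) and RN486 (low) controls.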

For a further assay, the system named is TMD8 cells. Put plainly: 4-day proliferation assay, TMD8. It is filed as cell-based. Particulars: Homo sapiens, 96 h, 4 days incubation, CellTiterGLO, read-out: Anti-proliferation: TMD-8 IC50. The gist of the method: (§2)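 Each line was plated at 10,000 cells per well for linear growth, with no beta-mercaptoethanol during the assay. OCI-Ly3 cells were below passage 10.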
A general note: ATP-based viability assays read luminescence as a measure of living cells.

Assay [3] relates to IL10 secretion by TMD8 ABC-DLBCL cells. Briefly: Human IL10 Mesoscale assay (TMD-8). The note with it: Homo sapiens, TMD8; TMD-8 cells, 24 h. It is filed as cell-based. The method, boiled down: as §1
Another assay has as its system OCI-Ly3 cells. Put plainly: 4-day proliferation assay, OCI-Ly3. In kind it is cell-based, human. Particulars: Homo sapiens, 96 h, 4 days incubation, CellTiterGLO, read-out: Anti-proliferation: OCI-LY-3 IC50. The gist of the method:
as §2

SMILES strings stand for the structures.

On to `N#Cc1cc(NC(=O)c2cnn(-c3cccc4ccccc34)c2C(F)(F)F)ccn1` [Cpd 1, N-(2-Cyanopyridin-4-yl)-1-(naphthalen-1-yl)-5-(trifluoromethyl)-1H-pyrazole-4-carboxamide], for which the IC50 amounted to 389 nM in assay [1] and 310 nM in the assay with Jurkat cells.

For the molecule `O=C(Nc1cnc(-n2nccn2)c(Cl)c1)c1cnn(-c2cccc3ccccc23)c1C(F)(F)F` [Cpd 2, N-(5-Chloro-6-(2H-1,2,3-triazol-2-yl)pyridin-3-yl)-1-(naphthalen-1-yl)-5-(trifluoromethyl)-1H-pyrazole-4-carboxamide], the IC50 in assay [2] came to 52 nM; in assay [1], 12 nM; in the assay on TMD8 cells, 13800 nM; with Jurkat cells, 59 nM; in assay [3] it was 28 nM; with OCI-Ly3 cells it was 420 nM.

With `O=C(Nc1ccnc(C(F)(F)F)c1)c1cnn(-c2cccc3ccccc23)c1C(F)(F)F` [Cpd 3, 1-(Naphthalen-1-yl)-5-(trifluoromethyl)-N-(2-(trifluoromethyl)pyridin-4-yl)-1H-pyrazole-4-carboxamide], the IC50 was 219 nM in assay [2]; 191 nM in assay [1]; 9550 nM with TMD8 cells; 160 nM in the assay with Jurkat cells; 138 nM in assay [3]; ~2880 nM in the assay on OCI-Ly3 cells.

With `N#Cc1cncc(NC(=O)c2cnn(-c3cccc4ccccc34)c2C(F)(F)F)c1` [Cpd 5, N-(5-Cyanopyridin-3-yl)-1-(naphthalen-1-yl)-5-(trifluoromethyl)-1H-pyrazole-4-carboxamide], the IC50 in assay [2] was 282 nM; in assay [1] it was 214 nM; in the assay on TMD8 cells, > 20000 nM; with Jurkat cells, 140 nM; in the assay with OCI-Ly3 cells it was ~780 nM.

Consider `O=C(Nc1ccnc(C(F)(F)F)c1)c1cnn(-c2cccc3ncccc23)c1C(F)(F)F` [Cpd 6, 1-(Quinolin-5-yl)-5-(trifluoromethyl)-N-(2-(trifluoromethyl)pyridin-4-yl)-1H-pyrazole-4-carboxamide], for which the IC50 in assay [2] turned out to be 112 nM; in assay [1] it was 91 nM; in the assay with TMD8 cells it was 9330 nM; in the assay with Jurkat cells, 23 nM; with OCI-Ly3 cells, 620 nM.

As to `COc1ncc(NC(=O)c2cnn(-c3cccc4ncccc34)c2C(F)(F)F)cc1Cl` [Cpd 7, N-(5-Chloro-6-methoxypyridin-3-yl)-1-(quinolin-5-yl)-5-(trifluoromethyl)-1H-pyrazole-4-carboxamide], the IC50 was 166 nM in assay [2]; 41 nM in assay [1]; ~14100 nM in the assay on TMD8 cells; 130 nM in the assay on Jurkat cells; 430 nM with OCI-Ly3 cells.

For `O=C(Nc1cnc(-n2nccn2)c(Cl)c1)c1cnn(-c2cccc3ncccc23)c1C(F)(F)F` [Cpd 8, N-(5-Chloro-6-(2H-1,2,3-triazol-2-yl)pyridin-3-yl)-1-(quinolin-5-yl)-5-(trifluoromethyl)-1H-pyrazole-4-carboxamide], the IC50 in assay [2] is 32 nM; in assay [1] it was 13 nM; with TMD8 cells, ~7590 nM; in the assay with Jurkat cells, 5.2 nM; with OCI-Ly3 cells, 110 nM.

For the molecule `Cc1cc2ccccc2c(-n2ncc(C(=O)Nc3cnc(-n4nccn4)c(Cl)c3)c2C(F)(F)F)n1` [Cpd 9, N-(5-Chloro-6-(2H-1,2,3-triazol-2-yl)pyridin-3-yl)-1-(3-methylisoquinolin-1-yl)-5-(trifluoromethyl)-1H-pyrazole-4-carboxamide], the IC50 is 195 nM in assay [2]; 65 nM in assay [1]; 10700 nM in the assay on TMD8 cells; 39 nM in the assay with Jurkat cells; ~2400 nM with OCI-Ly3 cells.

`O=C(Nc1ccc(-n2nccn2)c(Cl)c1)c1cnn(-c2cccc3ccncc23)c1C(F)(F)F` [Cpd 11, N-(3-chloro-4-(2H-1,2,3-triazol-2-yl)phenyl)-1-(isoquinolin-8-yl)-5-(trifluoromethyl)-1H-pyrazole-4-carboxamide]: the IC50 in assay [2] is ~13500 nM; in assay [1], 977 nM; in the assay with TMD8 cells, 12600 nM; in the assay with Jurkat cells, 680 nM; with OCI-Ly3 cells, ~9550 nM.

For the molecule `CCc1c(C(=O)Nc2cnc(-n3nccn3)c(Cl)c2)cnn1-c1cccc2ncccc12` [Cpd 17, N-(5-Chloro-6-(2H-1,2,3-triazol-2-yl)pyridin-3-yl)-5-ethyl-1-(quinolin-5-yl)-1H-pyrazole-4-carboxamide], the IC50 in assay [2] is 794 nM; in assay [1], 141 nM; with TMD8 cells, 9330 nM; in the assay on Jurkat cells, 170 nM; with OCI-Ly3 cells, ~4370 nM.

As for `N#Cc1cc(NC(=O)c2cnn(-c3cccc4ccncc34)c2C(F)(F)F)cnc1-n1nccn1` [Cpd 19, N-(5-cyano-6-(2H-1,2,3-triazol-2-yl)pyridin-3-yl)-1-(isoquinolin-8-yl)-5-(trifluoromethyl)-1H-pyrazole-4-carboxamide], the IC50 in assay [2] was 1950 nM; in assay [1], 229 nM; in the assay on TMD8 cells, > 20000 nM; in the assay with Jurkat cells it was 410 nM; in the assay on OCI-Ly3 cells, 1100 nM.

As to `O=C(Nc1cnc(-c2ncco2)c(Cl)c1)c1cnn(-c2cccc3ccncc23)c1C(F)(F)F` [Cpd 22, N-(5-chloro-6-(oxazol-2-yl)pyridin-3-yl)-1-(isoquinolin-8-yl)-5-(trifluoromethyl)-1H-pyrazole-4-carboxamide], the IC50 in assay [2] is > 15000 nM; in assay [1] it was 661 nM; in the assay on TMD8 cells, 17000 nM; with Jurkat cells, 1860 nM; with OCI-Ly3 cells, ~310 nM.

`COc1ncc(NC(=O)c2cnn(-c3cncc4ccccc34)c2C(F)(F)F)cc1Cl` [Cpd 23, N-(5-chloro-6-methoxypyridin-3-yl)-1-(isoquinolin-4-yl)-5-(trifluoromethyl)-1H-pyrazole-4-carboxamide]: the IC50 in assay [2] stood at 107 nM; in assay [1], 89 nM; in the assay on TMD8 cells it was 8320 nM; in the assay with Jurkat cells, 810 nM; in the assay with OCI-Ly3 cells, 3390 nM.

On to `O=C(Nc1cnc(-n2nccn2)c(Cl)c1)c1cnn(-c2cccc3ncc(F)cc23)c1C(F)(F)F` [Cpd 25, N-(5-Chloro-6-(2H-1,2,3-triazol-2-yl)pyridin-3-yl)-1-(3-fluoroquinolin-5-yl)-5-(trifluoromethyl)-1H-pyrazole-4-carboxamide], for which the IC50 in assay [2] is 174 nM; in assay [1], 72 nM; in the assay on TMD8 cells, ~14100 nM; in the assay on Jurkat cells, 210 nM; in the assay on OCI-Ly3 cells, 3310 nM.

On to `CC(C)c1c(C(=O)Nc2cnc(-n3nccn3)c(Cl)c2)cnn1-c1cccc2ncccc12` [Cpd 26, N-(5-chloro-6-(2H-1,2,3-triazol-2-yl)pyridin-3-yl)-5-isopropyl-1-(quinolin-5-yl)-1H-pyrazole-4-carboxamide], for which the IC50 turned out to be 575 nM in assay [2]; 631 nM in assay [1]; 8710 nM in the assay on TMD8 cells; 790 nM with Jurkat cells; 4790 nM in the assay with OCI-Ly3 cells.

On to `Cc1ccc(-n2ncc(C(=O)Nc3cnc(-n4nccn4)c(Cl)c3)c2C(F)(F)F)c2cccnc12` [Cpd 28, N-(5-Chloro-6-(2H-1,2,3-triazol-2-yl)pyridin-3-yl)-1-(8-methylquinolin-5-yl)-5-(trifluoromethyl)-1H-pyrazole-4-carboxamide], for which the IC50 in assay [2] came to 141 nM; in assay [1], 68 nM; in the assay with TMD8 cells, 6610 nM; in the assay with Jurkat cells, 200 nM; in the assay with OCI-Ly3 cells it was 1510 nM.
